According to US20220073525A1, “COMPOSITIONS FOR INHIBITING UBIQUITIN SPECIFIC PROTEASE 1” (FORMA Therapeutics, Inc., priority 2019, published 2022):

Biological target: USP1 (Homo sapiens, UniProt O94782)
Assay: Biochemical Assay for USP1 Inhibition (Ub-Rho 110 fluorescence)
Conditions: Table 5; 30 min preincubation, Enzyme 0.025 nM, Substrate Ub-Rho 110 25 nM; read-out: IC50 (μm)
Experimental: The assay was performed in a final volume of 6 μL in assay buffer containing 20 mM Tris-HCl pH 8.0, (1 M Tris-HCl, pH 8.0 solution; Corning 46-031-CM), 1 mM GSH (L-glutathione reduced, Sigma-Aldrich, G4251-100G), 0.03% BGG (0.22 μM filtered, Sigma, G7516-25G), and 0.01% Triton X-100 (Sigma, T9284-10L). Nanoliter quantities of 10-point, 3-fold serial dilution in DMSO were pre-dispensed into 1536 assay plates (Corning, #3724BC) for a final test concentration of 25 μM to 1.3 nM, top to lowest dose, respectively. Concentration and incubation times were optimized for the maximal signal-to-background while maintaining initial velocity conditions at a fixed substrate concentration (<<Km). 3 μL of 2× Enzyme was added to assay plates (pre-stamped with compound), preincubated for 30 min, and then treated with 3 μL of 2× Substrate (Ub-Rho 110, UbiQ-126). Final concentrations of Enzyme and Substrate are 0.025 nM and 25 nM, respectively. Plates were read using a kinetic protocol continuously for 11 min on the Envision (Perkin Elmer) or PheraSTAR (BMG), excitation at 485 nm and emission at 535 nm or excitation at 520 nm and emission at 590 nm. For all assay formats, data were reported as percent inhibition compared with control wells based on the following equation: % inh=100*([…]), where FLU=measured Fluorescence, AveLow=average Fluorescence of no enzyme control (n=32), and AveHigh=average Fluorescence of DMSO control (n=32). IC50 values were determined by curve fitting of the standard 4 parameter logistic fitting algorithm included in the Activity Base software package: TDBS XE Designer Model205. Data is fitted using the Levenburg Marquardt algorithm.
In Table 5, absolute stereochemistry has not been determined for some Compounds. Accordingly, assignment ofany Compounds as the “R” or “S” stereoisomer is arbitrary, unless otherwise noted. In some cases, Compounds are labeled with “1st eluting isomer”, “2nd eluting isomer”, etc. based on the purification method used to separate the stereoisomers.

USP1, sequence (O94782 whole entry): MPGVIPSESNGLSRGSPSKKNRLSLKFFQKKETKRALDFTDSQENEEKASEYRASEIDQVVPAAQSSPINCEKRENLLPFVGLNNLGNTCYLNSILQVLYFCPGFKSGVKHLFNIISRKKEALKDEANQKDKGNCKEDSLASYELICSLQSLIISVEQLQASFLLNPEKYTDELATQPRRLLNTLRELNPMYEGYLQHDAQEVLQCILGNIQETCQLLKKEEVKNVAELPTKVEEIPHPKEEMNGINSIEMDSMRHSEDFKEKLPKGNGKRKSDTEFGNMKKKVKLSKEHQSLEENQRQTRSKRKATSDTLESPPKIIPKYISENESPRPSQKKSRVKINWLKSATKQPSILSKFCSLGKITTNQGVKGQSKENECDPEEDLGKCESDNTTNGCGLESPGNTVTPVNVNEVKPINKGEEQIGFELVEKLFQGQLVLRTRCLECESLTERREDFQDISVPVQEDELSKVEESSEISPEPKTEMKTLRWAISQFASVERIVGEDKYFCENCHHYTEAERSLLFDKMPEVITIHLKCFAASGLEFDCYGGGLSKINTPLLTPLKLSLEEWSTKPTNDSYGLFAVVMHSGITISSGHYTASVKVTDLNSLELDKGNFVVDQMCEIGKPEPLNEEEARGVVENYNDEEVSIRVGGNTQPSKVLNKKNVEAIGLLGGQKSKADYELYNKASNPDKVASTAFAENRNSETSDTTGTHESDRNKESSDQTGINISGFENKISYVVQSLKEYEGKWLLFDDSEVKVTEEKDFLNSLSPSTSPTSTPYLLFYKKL
USP1, sequence (Q8TAF3 whole entry partner): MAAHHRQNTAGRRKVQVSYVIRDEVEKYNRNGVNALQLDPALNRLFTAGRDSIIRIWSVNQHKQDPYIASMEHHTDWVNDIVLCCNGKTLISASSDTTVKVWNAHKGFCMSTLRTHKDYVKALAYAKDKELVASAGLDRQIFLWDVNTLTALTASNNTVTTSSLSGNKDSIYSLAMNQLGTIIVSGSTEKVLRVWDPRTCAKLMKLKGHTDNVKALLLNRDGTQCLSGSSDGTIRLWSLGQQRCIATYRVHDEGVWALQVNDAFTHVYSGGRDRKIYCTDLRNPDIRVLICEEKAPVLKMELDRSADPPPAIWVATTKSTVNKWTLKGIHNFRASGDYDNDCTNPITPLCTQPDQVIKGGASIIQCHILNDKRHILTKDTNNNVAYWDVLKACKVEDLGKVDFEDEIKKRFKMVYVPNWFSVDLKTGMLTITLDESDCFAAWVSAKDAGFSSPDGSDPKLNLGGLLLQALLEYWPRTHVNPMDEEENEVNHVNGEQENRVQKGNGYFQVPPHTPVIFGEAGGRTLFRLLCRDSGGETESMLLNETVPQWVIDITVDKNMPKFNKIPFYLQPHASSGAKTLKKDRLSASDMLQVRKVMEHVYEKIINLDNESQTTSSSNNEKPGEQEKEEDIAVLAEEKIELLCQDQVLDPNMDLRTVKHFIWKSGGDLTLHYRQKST

SMILES	IC50
Cc1nc(-c2cccnc2C(C)C)c2n1CCN(c1ccc(C(=O)N(C)C)cc1F)C2 [Compound 49, 3-fluoro-N,N-dimethyl-4-{3-methyl-1-[2-(propan-2-yl)pyridin-3-yl]-5H,6H,7H,8H-imidazo[1,5-a]pyrazin-7-yl}benzamide]	10 to 25 µM
Cc1nc(-c2cccnc2C(C)C)c2n1CCN(c1ccc(C(=O)N(C)C)cc1)C2 [Compound 50, N,N-dimethyl-4-{3-methyl-1-[2-(propan-2-yl)pyridin-3-yl]-5H,6H,7H,8H-imidazo[1,5-a]pyrazin-7-yl}benzamide]	10 to 25 µM
Cc1nc(-c2cccnc2C(C)C)c2n1CCN(c1ccc(C(=O)NCc3ccc(-n4ccc(C(F)(F)F)n4)cc3)cc1)C2 [Compound 53, 4-{3-methyl-1-[2-(propan-2-yl)pyridin-3-yl]-5H,6H,7H,8H-imidazo[1,5-a]pyrazin-7-yl}-N-({4-[3-(trifluoromethyl)-1H-pyrazol-1-yl]phenyl}methyl)benzamide]	1 to 10 µM
Cc1nc(-c2cccnc2C(C)C)c2n1CCN(c1ccc(C(=O)N3CCC[C@H]3C)cc1)C2 [Compound 54-1, 3-(3-methyl-7-{4-[(2R)-2-methylpyrrolidine-1-carbonyl]phenyl}-5H,6H,7H,8H-imidazo[1,5-a]pyrazin-1-yl)-2-(propan-2-yl)pyridine]	10 to 25 µM
Cc1nc(-c2cccnc2C(C)C)c2n1CCN(c1ccc(C(=O)N3CCC[C@@H]3C)cc1)C2 [Compound 55, 3-(3-methyl-7-{4-[(2S)-2-methylpyrrolidine-1-carbonyl]phenyl}-5H,6H,7H,8H-imidazo[1,5-a]pyrazin-1-yl)-2-(propan-2-yl)pyridine]	1 to 10 µM
Cc1nc(-c2cccnc2C(C)C)c2n1C(C)CN(c1ccc(-c3nc(C(F)(F)F)cn3C)cc1)C2 (stereo not drawn) [Compound 56, 3-(3,5-dimethyl-7-{4-[1-methyl-4-(trifluoromethyl)-1H-imidazol-2-yl]phenyl}-5H,6H,7H,8H-imidazo[1,5-a]pyrazin-1-yl)-2-(propan-2-yl)pyridine]	≤ 1 µM
Cc1nc(-c2cccnc2C(C)C)c2n1CCN(c1ccc(C(=O)NCC3CC3)cc1)C2 [Compound 57, N-(cyclopropylmethyl)-4-{3-methyl-1-[2-(propan-2-yl)pyridin-3-yl]-5H,6H,7H,8H-imidazo[1,5-a]pyrazin-7-yl}benzamide]	> 25 µM
Cc1nc(-c2cccnc2C(C)C)c2n1CCN(c1ccc(C(=O)N(C)CC(F)(F)F)cc1)C2 [Compound 58, N-methyl-4-{3-methyl-1-[2-(propan-2-yl)pyridin-3-yl]-5H,6H,7H,8H-imidazo[1,5-a]pyrazin-7-yl}-N-(2,2,2-trifluoroethyl)benzamide]	1 to 10 µM
Cc1nc(-c2cccnc2C(C)C)c2n1CCN(c1ccc(NC(=O)C3CC3)cc1)C2 [Compound 59, N-(4-{3-methyl-1-[2-(propan-2-yl)pyridin-3-yl]-5H,6H,7H,8H-imidazo[1,5-a]pyrazin-7-yl}phenyl)cyclopropanecarboxamide]	1 to 10 µM
Cc1nc(-c2cccnc2C(C)C)c2n1CCN(c1cccc(C(=O)N(C)C3CC3)c1)C2 [Compound 60, N-cyclopropyl-N-methyl-3-{3-methyl-1-[2-(propan-2-yl)pyridin-3-yl]-5H,6H,7H,8H-imidazo[1,5-a]pyrazin-7-yl}benzamide]	> 25 µM
Cc1nc(-c2cccnc2C(C)C)c2n1CCN(c1cccc(C(=O)N3CCC[C@H]3C)c1)C2 [Compound 61, 3-(3-methyl-7-{3-[(2R)-2-methylpyrrolidine-1-carbonyl]phenyl}-5H,6H,7H,8H-imidazo[1,5-a]pyrazin-1-yl)-2-(propan-2-yl)pyridine]	> 25 µM
Cc1nc(-c2cccnc2C(C)C)c2n1CCN(c1cccc(C(=O)N3CCC[C@@H]3C)c1)C2 [Compound 62, 3-(3-methyl-7-{3-[(2S)-2-methylpyrrolidine-1-carbonyl]phenyl}-5H,6H,7H,8H-imidazo[1,5-a]pyrazin-1-yl)-2-(propan-2-yl)pyridine]	> 25 µM
